Emax and IC50 data for 16 molecules are collected here from patent publication US8642640B2, “1-phenylpyrrole derivatives” (Exelixis, Inc., priority 2008, dated 2014).

For one test, the target named is T1, human mineralocorticoid receptor (hMR) (Homo sapiens, UniProt P08235).
T1 construct: expressed in transfected cells; host or cells: HEK293
T1 sequence (P08235 726-964 limits assumed): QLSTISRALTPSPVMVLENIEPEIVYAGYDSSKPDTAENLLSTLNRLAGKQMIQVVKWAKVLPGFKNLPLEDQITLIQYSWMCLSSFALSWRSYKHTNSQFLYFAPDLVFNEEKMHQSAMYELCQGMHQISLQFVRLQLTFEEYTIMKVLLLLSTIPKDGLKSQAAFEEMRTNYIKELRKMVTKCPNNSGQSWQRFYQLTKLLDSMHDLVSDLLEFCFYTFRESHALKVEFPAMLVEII
The test is described as follows: GAL4-hMR-LBD luciferase reporter assay in HEK293 cells with 1 nM aldosterone (Test Example 1).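 As to Imax: 0% is DMSO-only control and 100% is 1 nM aldosterone alone.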 The test is classed as cell-based. To be noted: HEK293; read-out: Imax. As for the experimental part:
A plasmid pM-hMR-LBD expressing GAL4-hMR receptor, which has a ligand binding domain (LBD, corresponding to approximately 308 amino acids at the carboxy terminus) of human mineralocorticoid receptor (hMR, NM_000901) bonded to a DNA binding domain of yeast transcription factor GAL4 (corresponding to 147 amino acids at the amino terminus), was prepared. Reporter assay was conducted by using a reporter plasmid (such as plasmid pFR-Luc of […] CLONING SYSTEMS) including a luciferase gene, having a sequence (UAS sequence) which binds to the DNA binding domain of GAL4.
The plasmid pM-hMR-LBD and the reporter plasmid as obtained above were gene transferred into renal cell line HEK293 of human fetus by lipofection. On the next day, cells were collected by trypsin treatment, and dispensed with DMEM culture medium containing 5% of FBS treated by activated charcoal, to a white 96-well plate (Costar) with the amount of 95 microliter per well.
The test compounds were used as dissolved in dimethyl sulfoxide at a predetermined concentration, and the test compounds suitably diluted with culture media were added to the cells on the white 96-well plate so that the final concentration becomes 0.1%. […] After the addition, cultivation was carried out overnight.
On the next day, the culture media was removed, and then luciferase substrate (Wako Pure Chemical Industries, Ltd.) was prepared in accordance with the attached document and were added to each well by 50 microliters. Stirring was conducted for approximately 30 minutes, and the amount of luminescence was measured for each well by using Analyst (Molecular Devices), to obtain luciferase activity. A graph which plots relative luciferase activity values, when the luciferase activity value of Control group 1 was taken as 0% and the luciferase activity value of Control group 2 was taken as 100%, for each of the amount of the test compound addition group was made.
A general note: A reporter such as luciferase makes a cellular process visible.
As to `Cc1c(C(=O)Nc2ccc(S(C)(=O)=O)cc2)cc(CCO)n1-c1ccc(F)cc1Cl` (single isomer, unassigned) [Example 3 - isomer A, 1-(2-Chloro-4-fluorophenyl)-5-(2-hydroxyethyl)-2-methyl-N-[4-(methylsulfonyl)phenyl]-1H-pyrrole-3-carboxamide], the Emax came out at 114%.

As to `Cc1c(C(=O)Nc2ccc(S(N)(=O)=O)c(Cl)c2)cc(C[C@H](C)O)n1-c1ccc(F)cc1C(F)(F)F` (single isomer, unassigned) [Example 12 - isomer A], the Emax was 113%. On the same count and under the same terms, with `Cc1cc(NC(=O)c2cc(C[C@H](C)O)n(-c3ccc(F)cc3OC(F)F)c2C)ccc1S(C)(=O)=O` (single isomer, unassigned) [Example 22 - isomer A] the figure was 99%.

Staying with this test, now noted: concentration showing Imax/2; HEK293, GAL4-hMR-LBD, 1 nM aldosterone, overnight; read-out: ICmax50.
Turning to `Cc1c(C(=O)Nc2ccc(S(C)(=O)=O)cc2)cc(CCO)n1-c1ccc(Cl)cc1C(F)(F)F` (single isomer, unassigned) [Example 1 - isomer B, 1-[4-Chloro-2-(trifluoromethyl)phenyl]-5-(2-hydroxyethyl)-2-methyl-N-[4-(methylsulfonyl)phenyl]-1H-pyrrole-3-carboxamide], the IC50 was greater than 1000 nM.

Take `Cc1c(C(=O)Nc2ccc(S(C)(=O)=O)cc2)cc(CCO)n1-c1ccc(F)cc1Cl` (single isomer, unassigned) [Example 3 - isomer A, 1-(2-Chloro-4-fluorophenyl)-5-(2-hydroxyethyl)-2-methyl-N-[4-(methylsulfonyl)phenyl]-1H-pyrrole-3-carboxamide]: the IC50 turned out to be 21 nM. In the case of `Cc1c(C(=O)Nc2ccc(S(C)(=O)=O)cc2)cc(CCO)n1-c1ccc(F)cc1Cl` (single isomer, unassigned) [Example 3 - isomer B, 1-(2-Chloro-4-fluorophenyl)-5-(2-hydroxyethyl)-2-methyl-N-[4-(methylsulfonyl)phenyl]-1H-pyrrole-3-carboxamide], the IC50 was greater than 1000 nM. Still for that read-out and setting: with `Cc1c(C(=O)Nc2ccc(S(C)(=O)=O)cc2)cc(C[C@H](C)O)n1-c1ccc(F)cc1C(F)(F)F` (single isomer, unassigned) [Example 5 - isomer B] the figure was greater than 1000 nM; with `Cc1c(C(=O)Nc2ccc(S(C)(=O)=O)cc2)cc(C[C@H](C)O)n1-c1ccc(Cl)cc1C(F)(F)F` (single isomer, unassigned) [Example 6 - isomer B], greater than 1000 nM; with `Cc1c(C(=O)Nc2ccc(S(C)(=O)=O)cc2)cc(C[C@H](C)O)n1-c1ccc(F)cc1OC(F)F` (single isomer, unassigned) [Example 9 - isomer B], greater than 1000 nM.

On to `Cc1c(C(=O)Nc2ccc(S(C)(=O)=O)cc2)cc(C[C@H](C)O)n1-c1ccc(Cl)cc1OC(F)F` (single isomer, unassigned) [Example 11 - isomer B], for which the IC50 was greater than 1000 nM. On to `Cc1c(C(=O)Nc2ccc(S(N)(=O)=O)c(Cl)c2)cc(C[C@H](C)O)n1-c1ccc(F)cc1C(F)(F)F` (single isomer, unassigned) [Example 12 - isomer A], for which the IC50 came to 3.1 nM. On the same count and under the same terms, under `Cc1c(C(=O)Nc2ccc(S(N)(=O)=O)c(Cl)c2)cc(C[C@H](C)O)n1-c1ccc(F)cc1C(F)(F)F` (single isomer, unassigned) [Example 12 - isomer B] stands greater than 1000 nM.

Take `Cc1c(C(=O)Nc2ccc(S(C)(=O)=O)cc2)cc(C[C@H](C)O)n1-c1ccc(F)cc1OC(F)(F)F` (single isomer, unassigned) [Example 16 - isomer B]: the IC50 was greater than 1000 nM. Still for that read-out and setting: under `Cc1cc(NC(=O)c2cc(C[C@H](C)O)n(-c3ccc(F)cc3OC(F)F)c2C)ccc1S(C)(=O)=O` (single isomer, unassigned) [Example 22 - isomer A] stands 6.1 nM; under `Cc1cc(NC(=O)c2cc(C[C@H](C)O)n(-c3ccc(F)cc3OC(F)F)c2C)ccc1S(C)(=O)=O` (single isomer, unassigned) [Example 22 - isomer B], greater than 1000 nM. Take `Cc1c(C(=O)Nc2ccc(S(C)(=O)=O)cc2)cc(C[C@H](C)O)n1-c1ccc(F)cc1Cl` (single isomer, unassigned) [Example 40 - isomer B]: the IC50 is greater than 1000 nM.

For `Cc1c(C(=O)Nc2ccc(S(C)(=O)=O)cc2)cc(C[C@H](C)O)n1-c1ccc(Cl)cc1OC(F)(F)F` (single isomer, unassigned) [Example 42 - isomer A], the IC50 was greater than 1000 nM. Still for that read-out and setting: under `Cc1c(C(=O)Nc2ccc(S(C)(=O)=O)cc2)cc(C[C@H](C)O)n1-c1ccc(Cl)cc1Cl` (single isomer, unassigned) [Example 43 - isomer B] stands greater than 1000 nM. On the same count and under the same terms, under `CCc1c(C(=O)Nc2ccc(S(C)(=O)=O)cc2)cc(C[C@H](C)O)n1-c1ccc(F)cc1Cl` (single isomer, unassigned) [Example 44 - isomer A] stands greater than 1000 nM.
